In ChEMBL document CHEMBL1201862, “PubChem BioAssay data set” (2004):
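Growth conditions: 96-well plates. Treatment: test compound, 48 hours, 5 concentrations. Analysis: linear interpolation between bracketing concentrations; unreached endpoints set to highest concentration. Abbreviation: GI50, concentration required for 50% inhibition of growth.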 The source made the active and inactive calls. Cut-off read from the data, not from the text of the source: active = GI50 up to about 1.1 µM and inactive = higher.

Assays:
Assay in all cases: growth of human tumour cells (NCI), 48 h
[1] = test system: ACHN
[2] = test system: COLO 205
[3] = test system: HCC 2998
[4] = test system: HL-60
[5] = test system: HOP-62
[6] = test system: Hs-578T
[7] = test system: M14
[8] = test system: OVCAR-3
[9] = test system: OVCAR-5
[10] = test system: SF-295
[11] = test system: SF-539
[12] = test system: SK-MEL-28
[13] = test system: SNB-19
[14] = test system: SNB-75
[15] = test system: SR
[16] = test system: SW-620
[17] = test system: TK-10
[18] = test system: U-251
[19] = test system: UACC-62
[20] = test system: UO-31

Measured: GI50

COc1ccc(-n2sc3ncc([N+](=O)[O-])cc3c2=O)cc1
inactive: [1] > 100 µM | [2] > 100 µM | [3] > 100 µM | [4] > 100 µM | [5] > 100 µM | [6] 32.1 µM | [7] > 100 µM | [8] > 100 µM | [9] > 100 µM | [10] > 100 µM | [11] > 100 µM | [12] > 100 µM | [13] > 100 µM | [14] > 100 µM | [15] > 100 µM | [16] > 100 µM | [17] > 100 µM | [18] > 100 µM | [19] > 100 µM | [20] > 100 µM

O=c1oc2ccc3ccccc3c2cc1-c1nc2ccc([N+](=O)[O-])cc2o1
inactive: [1] 8.57 µM | [2] > 100 µM | [3] > 100 µM | [4] 34.7 µM | [5] 10.6 µM | [6] 56.6 µM | [7] 25.5 µM | [8] > 100 µM | [9] > 100 µM | [10] 13.5 µM | [11] 10.4 µM | [12] > 100 µM | [13] 13.8 µM | [14] 14.8 µM | [15] > 71.4 µM | [16] > 100 µM | [17] 28.3 µM | [18] 28.7 µM | [19] 59 µM | [20] > 49.2 µM

NC(=O)C1=CC2C3C=CC2(O)C(=O)OC3O1 (stereo not given)
inactive: [1] 3.44 µM | [2] 3.71 µM | [3] 12.2 µM | [4] 1.5 µM | [5] 9.06 µM | [6] 1.81 µM | [7] 2.97 µM | [8] 2.43 µM | [9] 22.8 µM | [10] 11.9 µM | [11] 3.56 µM | [12] 2.34 µM | [13] 13.1 µM | [14] 7.98 µM | [15] 1.68 µM | [16] 4.02 µM | [17] 4.07 µM | [18] 8.59 µM | [19] 2.71 µM | [20] 3.67 µM

COc1cc(/C=C2\CCC(CN(C)C)C2=O)ccc1OC(=O)c1ccccc1 (stereo not given)
inactive: [1] 15.3 µM | [2] 5.69 µM | [3] 16.3 µM | [4] 1.91 µM | [5] 16.3 µM | [6] 8.02 µM | [7] 9.51 µM | [8] 8.91 µM | [9] 18.8 µM | [10] 17.7 µM | [11] 14.1 µM | [12] 15.1 µM | [13] 11.4 µM | [14] 16 µM | [15] 2.56 µM | [16] 5.07 µM | [17] 11.3 µM | [18] 16.2 µM | [19] 16.5 µM | [20] 16.3 µM

OC1c2c(ccc3c2CCC3)CC12Cc1ccccc1C2 (stereo not given)
inactive: [1] 16.8 µM | [2] 16.3 µM | [3] 13.5 µM | [4] 15.9 µM | [5] 16.4 µM | [6] 16.6 µM | [7] 15.3 µM | [8] 13.6 µM | [9] 17.2 µM | [10] 17.1 µM | [11] 21.3 µM | [12] 16.6 µM | [13] 15.7 µM | [14] 13.8 µM | [15] 10.9 µM | [16] 17.7 µM | [17] 14.8 µM | [18] 15.9 µM | [19] 15.4 µM | [20] 14.2 µM

Cc1ccc(S(=O)(=O)N/C(=N\O)Nc2ccc(Cl)c(Cl)c2)cc1
inactive: [1] 11.9 µM | [2] 17.1 µM | [3] 2.14 µM | [4] 1.87 µM | [5] 14.1 µM | [6] 3.73 µM | [7] 5.58 µM | [8] 4.41 µM | [9] 3.2 µM | [10] 17.2 µM | [11] 12.1 µM | [12] 3.34 µM | [13] 7.4 µM | [14] 5.14 µM | [15] 5.69 µM | [16] 11.2 µM | [17] 14.6 µM | [18] 4.36 µM | [19] 11.7 µM | [20] 5.02 µM

CC(C)(C)c1ccc(-c2nc3ccc([N+](=O)[O-])cc3c(=O)o2)cc1
inactive: [1] 21.9 µM | [2] 24.4 µM | [3] 12.9 µM | [4] 25.5 µM | [5] 22.2 µM | [6] 25.2 µM | [7] 26.5 µM | [8] 27.4 µM | [9] 32.8 µM | [10] 20.8 µM | [11] 17.1 µM | [12] 34.4 µM | [13] 21.5 µM | [14] 24.9 µM | [15] 22.7 µM | [16] 31 µM | [17] 38.8 µM | [18] 15 µM | [19] 24.5 µM | [20] 32.9 µM

c1ccc(-c2c[nH]c(SC(c3ccccc3)c3ccccc3)n2)cc1
inactive: [1] 24.5 µM | [2] 13 µM | [3] 17 µM | [4] 11.1 µM | [5] 29 µM | [6] 33.3 µM | [7] 30.8 µM | [8] 33.4 µM | [9] 55.7 µM | [10] 15.2 µM | [11] 30.4 µM | [12] 33.7 µM | [13] 38 µM | [14] 32.1 µM | [15] 13.3 µM | [16] 27.6 µM | [17] 21.1 µM | [18] 15 µM | [19] 14.2 µM | [20] 29.6 µM

O=c1[nH]c2ccc(CC(=S)N3CCN(c4ccccc4)CC3)cc2o1
inactive: [1] > 100 µM | [2] 97.7 µM | [3] > 100 µM | [4] 6.18 µM | [5] > 88.5 µM | [6] > 54.2 µM | [7] > 100 µM | [8] > 100 µM | [9] > 100 µM | [10] > 89.3 µM | [11] > 67.8 µM | [12] > 100 µM | [13] > 100 µM | [14] > 34 µM | [15] > 58.3 µM | [16] > 100 µM | [17] > 100 µM | [18] 41.2 µM | [19] > 66.4 µM | [20] > 100 µM

Cc1ccc2c(c1)C(=O)C1(C2)Cc2c(C)cccc2C1=O (stereo not given)
inactive: [1] > 100 µM | [2] > 100 µM | [3] > 100 µM | [4] > 100 µM | [5] > 100 µM | [6] > 100 µM | [7] > 100 µM | [8] > 100 µM | [9] > 100 µM | [10] > 100 µM | [11] > 100 µM | [12] > 100 µM | [13] > 100 µM | [14] > 100 µM | [15] > 100 µM | [16] > 100 µM | [17] > 100 µM | [18] > 100 µM | [19] > 100 µM | [20] > 100 µM
